Measured values reported in patent US20040235830A1, “Substituted cyclohexane derivatives and the use thereof in medicaments for treating cardiovascular diseases” (priority 2000, published 2004).

system: Langendorff rat heart; test: Langendorff rat heart (isolated perfused heart, coronary perfusion pressure); conditions: constant-volume (10 ml/min) coronary perfusion, concentration from which perfusion pressure decreases (= relaxation of the coronary arteries), read-out: Decrease in the perfusion pressure from:
Experimental: The heart is rapidly removed after opening the chest cavity of anesthetized rats and is introduced into a conventional Langendorff apparatus. The coronary arteries are subjected to constant-volume (10 ml/min) perfusion, and the perfusion pressure arising thereby is recorded via an appropriate pressure transducer. A decrease in the perfusion pressure in this arrangement corresponds to a relaxation of the coronary arteries. At the same time, the pressure developed by the heart during each contraction is measured via a balloon introduced into the left ventricle, and a further pressure transducer. The rate at which the isolated heart beats is found by calculation from the number of contractions per unit time.

**Q.** How did the minimal effective concentration turn out when `C[C@H](NC(=O)[C@H]1CCCCC1c1ccc(C(=O)N(C)C(C)(C)c2ccccc2)cc1)c1ccccc1` (stereo in doubt) [Example 177, N-Methyl-N-(1-methyl-1-phenylethyl)-4-[(1R,2S)-2-({[(1S)-1-phenylethyl]-amino}carbonyl)cyclohexyl]benzamide] was run?
**A.** Its minimal effective concentration is 0.01 µM.

**Q.** How did the minimal effective concentration turn out when `O=C(N[C@@H](CO)c1ccccc1)[C@H]1CCCC[C@@H]1c1ccc(CN(C(=O)N2CCCCC2)c2ccccc2)cc1` [Example 1, N-[4-((1S,2S)-2-{[((1R)-2-Hydroxy-1-phenylethyl)amino]carbonyl}cyclohexyl)-benzyl]-N-phenyl-1-piperidinecarboxamide] was run?
**A.** The minimal effective concentration was 1 µM.

**Q.** With `C[C@H](NC(=O)[C@H]1CCCC[C@@H]1c1ccc(CN(C(=O)N2CCCC2)c2ccccc2)cc1)c1ccccc1` [Example 7] as the molecule, how does the minimal effective concentration read?
**A.** The minimal effective concentration was 0.1 µM.

**Q.** For `CN(Cc1ccc([C@H]2CCCC[C@@H]2C(=O)N[C@@H](CO)c2ccccc2)cc1)c1ccccc1` [Example 21], which minimal effective concentration is on record?
**A.** Its minimal effective concentration is 0.001 µM.

**Q.** How did the minimal effective concentration turn out when `O=C(NC(CO)c1ccccc1)C1CCCCC1c1ccc(CN(C(=O)Oc2ccccc2)C2CC2)cc1` (stereo not drawn) [Example 40] was run?
**A.** Its minimal effective concentration is 0.01 µM.

**Q.** Which minimal effective concentration does the source give for `COCCN(Cc1ccc(C2CCCCC2C(=O)NC(CO)c2ccccc2)cc1)C(=O)Nc1ccccc1` (stereo not drawn) [Example 80] here?
**A.** Its minimal effective concentration is 1 µM.

**Q.** `C[C@H](NC(=O)[C@H]1CCCC[C@@H]1c1ccc(CN(C)C(C)(C)c2ccccc2)cc1)c1ccccc1` [Example 123, (1S,2S)-2-(4-{[Dimethylbenzyl(methyl)amino]methyl}phenyl)-N-[(1S)-1-phenylethyl]cyclohexanecarboxamide] was tested. Which minimal effective concentration did it give?
**A.** The minimal effective concentration was 0.01 µM.

**Q.** For `COCC(NC(=O)[C@H]1CCCC[C@@H]1c1ccc(CN(C(=O)Oc2ccccc2)C2CC2)cc1)c1ccccc1` (stereo partly drawn) [Example 168], which minimal effective concentration is on record?
**A.** Its minimal effective concentration is 0.01 µM.

**Q.** Which minimal effective concentration does the source give for `C[C@H](NC(=O)[C@H]1CCCC[C@@H]1c1ccc(COc2ccccc2)cc1)c1ccccc1` [Example 210, (1S,2S)-2-(4-[Phenoxymethyl]phenyl)-N-[(1S)-1-phenylethyl]cyclohexane-carboxamide] here?
**A.** The minimal effective concentration was 0.001 µM.
